Experimental data published in patent US6207666A, “Method for treating a patient having precancerous lesion with 4-phenylphthalazine derivatives” (Cell Pathways, Inc., priority 1998, dated 2001).

How the values were obtained:
HT-29 cells = experiment: Apoptosis and necrosis by fluorescent microscopy (acridine orange and ethidium bromide) in confluent HT-29 cultures; assay type: cell-based, human
Description: Drug stock solutions were made in 100% DMSO then diluted with RPMI media for cell culture testing. All drug solutions were prepared fresh on the day of testing. The cultured cells were obtained at passage #118 and grown in RPMI media supplemented with 5% fetal calf serum, and 2 mM glutamine, 100 U/ml penicillin, 100 U/ml streptomycin, and 0.25 μg/ml amphotericin. The cultures were maintained in a humidified atmosphere of 95% air and 5% CO2 at 37° C. The cultures were passaged at preconfluent densities using a solution of 0.05% trypsin and 0.53 mM EDTA. All experiments involved HT-29 cells between passages 120 and 140. Cells were plated at the following densities to obtain cultures used for the experiments: 500 cells/well for 96 well flat-bottom microtiter plates, 1×10^6 cells per 25 cm^2 flask, or 4×10^6 cells per 75 cm^2 flask. Apoptosis and necrosis were measured using an assay which allowed for the simultaneous measurement of both types of cell death based on morphological characteristics of apoptotic cells (i.e., condensed chromatin) and membrane permeability. Drug preparation and cell culture conditions were the same as above. Confluent cultures were assayed for apoptosis and necrosis by fluorescent microscopy following labeling with acridine orange and ethidium bromide. Floating and attached cells were collected by trypsinization and washed three times in PBS. One ml aliquots of 1×10^6 cells were centrifuged (300 g). The pellet was resuspended in 25 μl media and 1 μl of a dye mixture containing 100 μg/ml acridine orange and 100 μg/ml ethidium bromide prepared in PBS and mixed gently. Ten μl of mixture was placed on a microscope slide and with a 22 mm^2 coverslip and examined under 40 x dry objectives using epilumination and filter combination. An observer blinded to the identity of the treatments scored at least 100 cells per sample. Apoptotic cells were identified by nuclear condensation of chromatin stained by the acridine orange or ethidium bromide. Necrotic cells were identified by uniform labeling of the cell with ethidium bromide. Data was also obtained, under the same procedure above, for the percent of apoptotic cells induced by treatment with varying concentrations of compound No. 17.

[1] = tested on: human colon carcinoma cell line, HT-29; experiment: HT-29 tumor cell growth inhibition, Sulforhodamine B (SRB) protein binding assay, six days continuous exposure; assay type: cell-based; details: for SRB Binding (A550): vehicle 0.801 ± 0.137
Description: Compound No. 17, 1-(3-chloroanilino)-4-phenylphthalazine, was assayed for its effect on the human colon carcinoma cell line, HT-29 obtained from ATCC, (Rockville, Md.) to ascertain the degree of growth inhibition. Growth inhibition of this cell line is thought to be indicative of a benefit on precancerous lesions and neoplasms. The cell line and growth assay employed for these experiments is well characterized, and is used by the United States National Cancer Institute in its screening program for new anti-cancer drugs.
Drug stock solutions were made in 100% DMSO then diluted with RPMI media for cell culture testing. All drug solutions were prepared fresh on the day of testing. The cultured cells were obtained at passage #118 and grown in RPMI media supplemented with 5% fetal calf serum, and 2 mM glutamine, 100 U/ml penicillin, 100 U/ml streptomycin, and 0.25 μg/ml amphotericin. The cultures were maintained in a humidified atmosphere of 95% air and 5% CO2 at 37° C. The cultures were passaged at preconfluent densities using a solution of 0.05% trypsin and 0.53 mM EDTA. All experiments involved HT-29 cells between passages 120 and 140. Cells were plated at the following densities to obtain cultures used for the experiments: 500 cells/well for 96 well flat-bottom microtiter plates, 1×10^6 cells per 25 cm^2 flask, or 4×10^6 cells per 75 cm^2 flask.
Tumor cell growth inhibition was assessed using the Sulforhodamine B (SRB) protein binding assay. In this assay, tumor cells were plated in 96-well plates and treated with drug-containing media for six days (continuous exposure). For each plate, 6 wells were designated as no treatment controls, six wells as vehicle (0.1% DMSO) controls, and the remaining wells for drug dilutions with six wells per drug concentration. At the end of the exposure period, the cells were fixed and stained with sulforhodamine B, a protein binding dye. The dye was then solubilized, and the optical density of the resulting solution was determined on a 96-well plate reader. The mean dye intensity of the treated wells was then divided by the mean dye intensity in the control wells (6 wells of each) to determine the effect of the drug on the cells. Dye intensity is proportional to the number of cells or amount of protein per well. The resultant "percent inhibition" value then represents the degree of growth inhibition caused by the drug in Table 4 below.

[2] = tested on: mammary lesions (mouse mammary gland organ culture); experiment: DMBA-induced mammary lesions in mouse mammary gland organ culture; assay type: cell-based, mouse (female BALB/c); details: for Glands with Lesions: vehicle 11 of 15; for Percent Incidence (mammary lesions): vehicle 73.33
Description: Compound No. 17 was also tested for its ability to inhibit the incidence of mammary lesions in an organ culture system. This mouse mammary gland organ culture technique has been successfully used by other investigators to study the effects of known cancer-chemopreventative agents such as retinoids and selenium.
Female BALB/c mice, 28 days old, were treated for nine days with a combination of […] of estradiol and 1 mg of progesterone daily, in order to prime the glands to be responsive to hormones in vitro. The animals were sacrificed and thoracic mammary glands were excised aseptically and incubated for ten days in growth media supplemented with growth-promoting hormones: insulin, prolactin, and hydrocortisone, at 5 μg/ml each and aldosterone at 1 μg/ml. A twenty-four hour treatment of 7,12-dimethylbenz(a)anthracene (DMBA, 2 μg/ml) was carried out between days three and four to induce the formation of mammary lesions. Fully developed glands were deprived of prolactin, hydrocortisone, and aldosterone for 14 days, resulting in the regression of the glands but not the mammary lesions.
In order to evaluate the effects of Compound No. 17, it was dissolved in DMSO and added to the culture media supplemented for the duration of the culture period. At the end of the culture period, the glands were fixed in 10%. formalin, stained with alum carmine, and mounted on glass slides. The incidence of forming mammary lesions is the ratio of the glands with mammary lesions and glands […]. The incidence of mammary lesions in compound 17 treated glands was compared with that of the untreated glands.
The extent of the area occupied by the mammary lesions was quantitated by projecting an image of the gland onto a digitation pad. The area covered by the gland was traced on the pad and considered as 100% of the area. The space covered by each of the unregressed structures was also outlined on the digitization pad and quantitated by the computer.

## Clc1cccc(Nc2nnc(-c3ccccc3)c3ccccc23)c1 [Compound No. 17, 1-(3-Chloroanilino)-4-phenylphthalazine]
HT-29 cells; 1 μM (Table 6), 0 μM gives 4%
  % Apoptotic Cells: 12%
HT-29 cells; 5 μM (Table 6), 0 μM gives 4%
  % Apoptotic Cells: 13%
HT-29 cells; 10 μM (Table 6), 0 μM gives 4%
  % Apoptotic Cells: 7%
HT-29 cells; 25 μM (Table 6), 0 μM gives 4%
  % Apoptotic Cells: 8%
HT-29 cells; 40 μM, HT-29, vehicle 2%, none 5%
  % Necrotic Cells: 6%
HT-29 cells; 40 μM, HT-29, vehicle 9%, none 7%
  % Apoptotic Cells: 83%
HT-29 cells; 50 μM (Table 6), 0 μM gives 4%
  % Apoptotic Cells: 78%
[1]; 1 μM
  SRB Binding (A550): 0.851 ± 0.059
[1]; 10 μM
  SRB Binding (A550): 0.007 ± 0.003
[1]; 100 μM
  SRB Binding (A550): 0.009 ± 0.010
[1]; Homo sapiens, 144 h, 1 μM
  inhibition at 1 µM: 0%
[1]; Homo sapiens, 144 h, 10 μM
  inhibition at 10 µM: 100%
[1]; Homo sapiens, 144 h, 100 μM
  inhibition at 100 µM: 100%
[2]; 10 μM, of 13 glands
  Glands with Lesions: 7
[2]; 10 μM
  Percent Incidence (mammary lesions): 53.85%
[2]; 100 μM, of 15 glands
  Glands with Lesions: 4
[2]; 100 μM
  Percent Incidence (mammary lesions): 26.67%
[2]; Mus musculus, 10 μM, read-out: Percent Inhibition (mammary lesions)
  inhibition at 10 µM: 27%
[2]; Mus musculus, 100 μM, read-out: Percent Inhibition (mammary lesions)
  inhibition at 100 µM: 64%
